What was measured:
Format in all cases: biochemical
LoCHS2 = target: T1, LoCHS2 (Lindsaea orbiculata, UniProt A0A4Y6I0P0); test: LC-MS product analysis; conditions: 100 μM malonyl-CoA, 50 mM potassium phosphate pH 6.5, 35 °C, no CHIL
T1 sequence (A0A4Y6I0P0 1-439): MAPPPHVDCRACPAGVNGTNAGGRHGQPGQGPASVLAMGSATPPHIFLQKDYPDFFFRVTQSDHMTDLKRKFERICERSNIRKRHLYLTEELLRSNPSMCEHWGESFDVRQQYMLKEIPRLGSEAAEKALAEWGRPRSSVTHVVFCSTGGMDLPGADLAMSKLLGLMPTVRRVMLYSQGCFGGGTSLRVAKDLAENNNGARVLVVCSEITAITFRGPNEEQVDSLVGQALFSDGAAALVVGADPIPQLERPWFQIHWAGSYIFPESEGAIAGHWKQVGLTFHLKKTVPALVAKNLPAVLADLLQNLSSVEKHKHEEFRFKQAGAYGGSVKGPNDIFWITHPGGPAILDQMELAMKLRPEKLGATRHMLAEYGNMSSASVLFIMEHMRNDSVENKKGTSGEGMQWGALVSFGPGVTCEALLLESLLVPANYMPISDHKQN

LoCHS1 = target: T2, LoCHS1 (Lindsaea orbiculata, UniProt A0A4Y6I0N8); test: LC-MS product analysis; conditions: 100 μM malonyl-CoA, 50 mM potassium phosphate pH 6.5, 35 °C, no CHIL
T2 sequence (A0A4Y6I0N8 1-405): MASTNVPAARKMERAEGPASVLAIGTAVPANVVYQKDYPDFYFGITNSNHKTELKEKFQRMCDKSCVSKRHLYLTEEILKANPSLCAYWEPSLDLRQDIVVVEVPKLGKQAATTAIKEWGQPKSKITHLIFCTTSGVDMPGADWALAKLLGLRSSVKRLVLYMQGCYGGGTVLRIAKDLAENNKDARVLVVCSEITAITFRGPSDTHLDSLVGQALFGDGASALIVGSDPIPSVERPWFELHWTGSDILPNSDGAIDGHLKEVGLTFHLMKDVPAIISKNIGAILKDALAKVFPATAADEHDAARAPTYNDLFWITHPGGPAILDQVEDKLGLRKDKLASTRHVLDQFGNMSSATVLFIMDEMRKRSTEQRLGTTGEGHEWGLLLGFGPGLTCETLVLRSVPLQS

PvCHI1 = target: T3, PvCHI1 (Pteris vittata, UniProt A0A4Y6I0P5); test: HPLC product analysis
T3 sequence (A0A4Y6I0P5 1-214): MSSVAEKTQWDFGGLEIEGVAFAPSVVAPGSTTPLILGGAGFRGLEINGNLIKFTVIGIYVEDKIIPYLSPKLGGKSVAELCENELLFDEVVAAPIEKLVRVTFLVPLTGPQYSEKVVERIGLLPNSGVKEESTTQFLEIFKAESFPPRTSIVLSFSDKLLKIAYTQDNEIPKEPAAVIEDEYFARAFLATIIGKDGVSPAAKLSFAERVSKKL

HaCHI1 = target: T4, HaCHI1 (Haplopteris amboinensis, UniProt A0A4Y6I1E6); test: HPLC product analysis
T4 sequence (A0A4Y6I1E6 1-214): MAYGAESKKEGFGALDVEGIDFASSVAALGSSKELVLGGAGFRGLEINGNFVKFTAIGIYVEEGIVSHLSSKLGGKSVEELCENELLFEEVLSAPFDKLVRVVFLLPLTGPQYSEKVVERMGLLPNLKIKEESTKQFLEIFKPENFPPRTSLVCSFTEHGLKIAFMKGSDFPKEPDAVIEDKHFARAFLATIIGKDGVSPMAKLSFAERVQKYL

AdcCHI1 = target: T5, AdcCHI1 (Adiantum caudatum, UniProt A0A4Y6I1H0); test: HPLC product analysis
T5 sequence (A0A4Y6I1H0 1-214): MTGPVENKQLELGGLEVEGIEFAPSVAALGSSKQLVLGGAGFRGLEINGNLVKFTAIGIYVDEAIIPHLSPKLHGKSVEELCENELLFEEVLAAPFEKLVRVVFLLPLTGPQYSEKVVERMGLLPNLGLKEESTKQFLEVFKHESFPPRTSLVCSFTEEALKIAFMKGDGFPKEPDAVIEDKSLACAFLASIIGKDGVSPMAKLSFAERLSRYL

[1] = 50 μM substrate, 50 mM Tris-HCl pH 7.5, 25 °C

CC(C)(COP(=O)(O)OP(=O)(O)OC[C@H]1O[C@@H](n2cnc3c(N)ncnc32)[C@H](O)[C@@H]1OP(=O)(O)O)[C@@H](O)C(=O)NCCC(=O)NCCSC(=O)/C=C/c1ccc(O)cc1 [p-coumaroyl-CoA]
LC-MS product analysis (LoCHS2): reactions were provided with p-coumaroyl-CoA and malonyl-CoA
LC-MS product analysis (LoCHS1): reactions were provided with p-coumaroyl-CoA and malonyl-CoA

O=C(/C=C/c1ccc(O)cc1)c1ccc(O)cc1O [isoliquiritigenin]
HPLC product analysis (PvCHI1; [1]): AcCHI1, AdcCHI1, AcaCHI1, HaCHI1, and PvCHI1 were all able to catalyze type II-specific substrates
HPLC product analysis (HaCHI1; [1]): AcCHI1, AdcCHI1, AcaCHI1, HaCHI1, and PvCHI1 were all able to catalyze type II-specific substrates
HPLC product analysis (AdcCHI1; [1]): AcCHI1, AdcCHI1, AcaCHI1, HaCHI1, and PvCHI1 were all able to catalyze type II-specific substrates

O=C(/C=C/c1ccc(O)cc1)c1c(O)cc(O)cc1O [naringenin chalcone]
HPLC product analysis (PvCHI1; room temperature, 1 min): the other five (AcCHI1, AcaCHI1, AdcCHI1, HaCHI1, and PvCHI1) exhibited slight type II CHI activity
HPLC product analysis (HaCHI1; room temperature, 1 min): the other five (AcCHI1, AcaCHI1, AdcCHI1, HaCHI1, and PvCHI1) exhibited slight type II CHI activity
HPLC product analysis (AdcCHI1; room temperature, 1 min): the other five (AcCHI1, AcaCHI1, AdcCHI1, HaCHI1, and PvCHI1) exhibited slight type II CHI activity

From publication PMC6913697 (Journal of Experimental Botany, 2019)
